Reference: patent publication US20100267561A1, “HERBICIDAL PYRIDAZINONE DERIVATIVES” (priority 2007, published 2010)

Assays:
Assay type in all cases: in vivo
[1] = system: canarygrass (Phalaris minor); assay: Test B postemergence plant response; settings: for Canarygrass plant response rating: 8 g ai/ha, postemergence, 0-100 scale; for Plant response rating, Canarygrass: Postemergence
Summary of the method: (§1)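 Following treatment of plants 2 to 18 cm high after emergence, pots were held under glass for 13 to 15 days; efficacy was then graded visually, 100 denoting complete control and a dash no test result.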

[2] = system: chickweed (Stellaria media); assay: Test B postemergence plant response; settings: for Chickweed plant response rating: 8 g ai/ha, postemergence, 0-100 scale; for Plant response rating, Chickweed: Postemergence
Summary of the method: as §1

[3] = system: winter barley (Hordeum vulgare); assay: Test B postemergence plant response; settings: for Barley plant response rating: 8 g ai/ha, postemergence, 0-100 scale; for Plant response rating, Barley: Postemergence, scale 0 to 100, 0 no effect, 100 complete control
Summary of the method: as §1

[4] = system: windgrass (Apera spica-venti); assay: Test B postemergence plant response; settings: for Windgrass plant response rating: 8 g ai/ha, postemergence, 0-100 scale; for Plant response rating, Windgrass: Postemergence
Summary of the method: as §1

[5] = system: large crabgrass (Digitaria sanguinalis); assay: Test A pre-/postemergence plant response
Summary of the method: (§2)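 Scores reflect visual plant injury relative to untreated controls on a 0–100 scale, recorded approximately 10 days after simultaneous preemergence soil spraying and postemergence spraying of one- to two-leaf seedlings grown in loam–sand.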

corn (Zea mays) = assay: Test A pre-/postemergence plant response
Summary of the method: as §2

[6] = system: velvetleaf (Abutilon theophrasti); assay: Test A pre-/postemergence plant response
Summary of the method: as §2

[7] = system: wheat (Triticum aestivum); assay: Test A pre-/postemergence plant response
Summary of the method: as §2

[8] = system: morningglory (Ipomoea coccinea); assay: Test A pre-/postemergence plant response
Summary of the method: as §2

[9] = system: barnyardgrass (Echinochloa crus-galli); assay: Test A pre-/postemergence plant response
Summary of the method: as §2

[10] = system: giant foxtail (Setaria faberi); assay: Test A pre-/postemergence plant response
Summary of the method: as §2

[11] = system: pigweed (Amaranthus retroflexus); assay: Test A pre-/postemergence plant response
Summary of the method: as §2

[12] = system: surinam grass (Brachiaria decumbens); assay: Test B pre-/postemergence plant response; settings: for Surinam Grass plant response rating: 8 g ai/ha
Summary of the method: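 Seeds were sown and sprayed preemergence, while plants at 2 to 18 cm (1- to 4-leaf stage) got postemergence sprays. Compounds were formulated in a non-phytotoxic solvent mixture with surfactant. After 13 to 15 days in a greenhouse, injury was rated visually against untreated controls, 0 (no effect) to 100 (complete control).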

[13] = 31 g ai/ha, scale 0 to 100, 0 no effect, 100 complete control
[14] = 62 g ai/ha, scale 0 to 100, 0 no effect, 100 complete control
[15] = Postemergence, 31 g ai/ha, 0 to 100 scale (0 no effect, 100 complete control)
[16] = Postemergence, 125 g ai/ha, 0 to 100 scale, 0 no effect, 100 complete control
[17] = Preemergence, 31 g ai/ha, 0 to 100 scale, 0 is no effect, 100 is complete control
[18] = Preemergence, 125 g ai/ha, 0 to 100 scale (0 no effect, 100 complete control)
[19] = Postemergence, 16 g ai/ha, scale 0 to 100
[20] = Postemergence, 62 g ai/ha, scale 0 to 100, 0 no effect, 100 complete control
[21] = Preemergence, 16 g ai/ha, scale 0 to 100 (0 no effect, 100 complete control)
[22] = Preemergence, 31 g ai/ha, scale 0 to 100 (0 no effect, 100 complete control)
[23] = Preemergence, 62 g ai/ha, 0 to 100 scale, 0 no effect, 100 complete control

CCc1cc(-c2ccc(Cl)cc2)nn1-c1c(OS(C)(=O)=O)cnn(C)c1=O [Compound 39]
Canarygrass plant response rating [1]: 0 | Plant response rating, Canarygrass ([1]; 16 g ai/ha, scale 0 to 100): 0 | Plant response rating, Canarygrass [1, 13]: 40 | Plant response rating, Canarygrass [1, 14]: 50 | Chickweed plant response rating [2]: 0 | Plant response rating, Chickweed ([2]; 16 g ai/ha, scale 0 to 100): 0 | Plant response rating, Chickweed [2, 13]: 0 | Plant response rating, Chickweed [2, 14]: 0 | Barley plant response rating [3]: 0 | Plant response rating, Barley ([3]; 16 g ai/ha): 5 | Plant response rating, Barley ([3]; 31 g ai/ha): 40 | Plant response rating, Barley ([3]; 62 g ai/ha): 70 | Windgrass plant response rating [4]: 0 | Plant response rating, Windgrass ([4]; 16 g ai/ha, scale 0 to 100): 40 | Plant response rating, Windgrass [4, 14]: 100 | Plant response rating, Crabgrass, Large [5, 15]: 60 | Plant response rating, Crabgrass, Large [5, 16]: 100 | Plant response rating, Crabgrass, Large [5, 17]: 60 | Plant response rating, Crabgrass, Large [5, 18]: 100 | Plant response rating, Corn (corn (Zea mays); [15]): 70 | Plant response rating, Corn (corn (Zea mays); [16]): 100 | Plant response rating, Corn (corn (Zea mays); [17]): 30 | Plant response rating, Corn (corn (Zea mays); [18]): 90 | Plant response rating, Velvetleaf [6, 15]: 0 | Plant response rating, Velvetleaf [6, 16]: 0 | Plant response rating, Velvetleaf [6, 17]: 0 | Plant response rating, Velvetleaf [6, 18]: 0 | Plant response rating, Wheat [7, 15]: 40 | Plant response rating, Wheat [7, 16]: 80 | Plant response rating, Wheat [7, 17]: 40 | Plant response rating, Wheat [7, 18]: 80 | Plant response rating, Morningglory [8, 15]: 0 | Plant response rating, Morningglory [8, 16]: 0 | Plant response rating, Morningglory [8, 17]: 0 | Plant response rating, Morningglory [8, 18]: 0 | Plant response rating, Barnyardgrass [9, 15]: 100 | Plant response rating, Barnyardgrass [9, 16]: 100 | Plant response rating, Barnyardgrass [9, 17]: 100 | Plant response rating, Barnyardgrass [9, 18]: 100 | Plant response rating, Foxtail, Giant [10, 15]: 90 | Plant response rating, Foxtail, Giant [10, 16]: 100 | Plant response rating, Foxtail, Giant [10, 17]: 90 | Plant response rating, Foxtail, Giant [10, 18]: 100 | Plant response rating, Pigweed [11, 15]: 0 | Plant response rating, Pigweed [11, 16]: 0 | Plant response rating, Pigweed [11, 17]: 0 | Plant response rating, Pigweed [11, 18]: 0 | Surinam Grass plant response rating ([12]; postemergence, 0-100 scale): 100 | Plant response rating, Surinam Grass [12, 19]: 100 | Plant response rating, Surinam Grass [12, 20]: 100 | Plant response rating, Surinam Grass [12, 21]: 95 | Plant response rating, Surinam Grass ([12]; Preemergence, 31 g ai/ha, 0 to 100 scale, 0 no effect, 100 complete control): 100 | Plant response rating, Surinam Grass ([12]; Preemergence, 62 g ai/ha, scale 0 to 100): 100 | Surinam Grass plant response rating ([12]; Preemergence, scale 0 to 100): 90

CCc1cc(-c2ccc(Cl)cc2)nn1-c1c(OC(=O)C(C)(C)C)cnn(C)c1=O [Compound 40]
Canarygrass plant response rating [1]: 20 | Plant response rating, Canarygrass ([1]; 16 g ai/ha, scale 0 to 100): 30 | Plant response rating, Canarygrass [1, 13]: 80 | Plant response rating, Canarygrass [1, 14]: 80 | Chickweed plant response rating [2]: 0 | Plant response rating, Chickweed ([2]; 16 g ai/ha, scale 0 to 100): 0 | Plant response rating, Chickweed [2, 13]: 0 | Plant response rating, Chickweed [2, 14]: 0 | Barley plant response rating [3]: 35 | Plant response rating, Barley ([3]; 16 g ai/ha): 40 | Plant response rating, Barley ([3]; 31 g ai/ha): 70 | Plant response rating, Barley ([3]; 62 g ai/ha): 70 | Windgrass plant response rating [4]: 70 | Plant response rating, Windgrass ([4]; 16 g ai/ha, scale 0 to 100): 80 | Plant response rating, Windgrass [4, 14]: 100 | Plant response rating, Crabgrass, Large [5, 15]: 70 | Plant response rating, Crabgrass, Large [5, 16]: 100 | Plant response rating, Crabgrass, Large [5, 17]: 70 | Plant response rating, Crabgrass, Large [5, 18]: 100 | Plant response rating, Corn (corn (Zea mays); [15]): 90 | Plant response rating, Corn (corn (Zea mays); [16]): 100 | Plant response rating, Corn (corn (Zea mays); [17]): 30 | Plant response rating, Corn (corn (Zea mays); [18]): 90 | Plant response rating, Velvetleaf [6, 15]: 0 | Plant response rating, Velvetleaf [6, 16]: 0 | Plant response rating, Velvetleaf [6, 17]: 0 | Plant response rating, Velvetleaf [6, 18]: 0 | Plant response rating, Wheat [7, 15]: 70 | Plant response rating, Wheat [7, 16]: 90 | Plant response rating, Wheat [7, 17]: 50 | Plant response rating, Wheat [7, 18]: 90 | Plant response rating, Morningglory [8, 15]: 0 | Plant response rating, Morningglory [8, 16]: 0 | Plant response rating, Morningglory [8, 17]: 0 | Plant response rating, Morningglory [8, 18]: 0 | Plant response rating, Barnyardgrass [9, 15]: 100 | Plant response rating, Barnyardgrass [9, 16]: 100 | Plant response rating, Barnyardgrass [9, 17]: 100 | Plant response rating, Barnyardgrass [9, 18]: 100 | Plant response rating, Foxtail, Giant [10, 15]: 100 | Plant response rating, Foxtail, Giant [10, 16]: 100 | Plant response rating, Foxtail, Giant [10, 17]: 100 | Plant response rating, Foxtail, Giant [10, 18]: 100 | Plant response rating, Pigweed [11, 15]: 0 | Plant response rating, Pigweed [11, 16]: 0 | Plant response rating, Pigweed [11, 17]: 0 | Surinam Grass plant response rating ([12]; postemergence, 0-100 scale): 98 | Plant response rating, Surinam Grass [12, 19]: 100 | Plant response rating, Surinam Grass [12, 20]: 100 | Plant response rating, Surinam Grass [12, 21]: 100 | Plant response rating, Surinam Grass [12, 22]: 100 | Plant response rating, Surinam Grass [12, 23]: 100 | Surinam Grass plant response rating ([12]; Preemergence, scale 0 to 100): 80

CCc1cc(-c2ccc(Cl)cc2)nn1-c1c(OC(=O)OC(C)C)cnn(C)c1=O [Compound 41]
Plant response rating, Canarygrass ([1]; 16 g ai/ha, scale 0 to 100): 0 | Plant response rating, Canarygrass [1, 13]: 0 | Plant response rating, Canarygrass [1, 14]: 0 | Chickweed plant response rating [2]: 0 | Plant response rating, Chickweed ([2]; 16 g ai/ha, scale 0 to 100): 0 | Plant response rating, Chickweed [2, 13]: 0 | Plant response rating, Chickweed [2, 14]: 0 | Plant response rating, Barley ([3]; 16 g ai/ha): 0 | Plant response rating, Barley ([3]; 31 g ai/ha): 0 | Plant response rating, Barley ([3]; 62 g ai/ha): 0 | Windgrass plant response rating [4]: 30 | Plant response rating, Windgrass ([4]; 16 g ai/ha, scale 0 to 100): 60 | Plant response rating, Windgrass [4, 14]: 85 | Plant response rating, Crabgrass, Large [5, 15]: 20 | Plant response rating, Crabgrass, Large [5, 16]: 90 | Plant response rating, Crabgrass, Large [5, 17]: 80 | Plant response rating, Crabgrass, Large [5, 18]: 100 | Plant response rating, Corn (corn (Zea mays); [15]): 60 | Plant response rating, Corn (corn (Zea mays); [16]): 90 | Plant response rating, Corn (corn (Zea mays); [17]): 30 | Plant response rating, Corn (corn (Zea mays); [18]): 90 | Plant response rating, Velvetleaf [6, 15]: 0 | Plant response rating, Velvetleaf [6, 16]: 0 | Plant response rating, Velvetleaf [6, 17]: 0 | Plant response rating, Velvetleaf [6, 18]: 0 | Plant response rating, Wheat [7, 15]: 60 | Plant response rating, Wheat [7, 16]: 70 | Plant response rating, Wheat [7, 17]: 50 | Plant response rating, Wheat [7, 18]: 80 | Plant response rating, Morningglory [8, 15]: 0 | Plant response rating, Morningglory [8, 16]: 0 | Plant response rating, Morningglory [8, 17]: 0 | Plant response rating, Morningglory [8, 18]: 0 | Plant response rating, Barnyardgrass [9, 15]: 80 | Plant response rating, Barnyardgrass [9, 16]: 100 | Plant response rating, Barnyardgrass [9, 17]: 100 | Plant response rating, Barnyardgrass [9, 18]: 100 | Plant response rating, Foxtail, Giant [10, 15]: 70 | Plant response rating, Foxtail, Giant [10, 16]: 90 | Plant response rating, Foxtail, Giant [10, 17]: 90 | Plant response rating, Foxtail, Giant [10, 18]: 100 | Plant response rating, Pigweed [11, 15]: 0 | Plant response rating, Pigweed [11, 16]: 0 | Plant response rating, Pigweed [11, 17]: 0 | Plant response rating, Pigweed [11, 18]: 0 | Surinam Grass plant response rating ([12]; postemergence, 0-100 scale): 100 | Plant response rating, Surinam Grass [12, 19]: 100 | Plant response rating, Surinam Grass [12, 20]: 100 | Plant response rating, Surinam Grass [12, 21]: 40 | Plant response rating, Surinam Grass [12, 22]: 55 | Plant response rating, Surinam Grass [12, 23]: 100 | Surinam Grass plant response rating ([12]; Preemergence, scale 0 to 100): 0
